The text below walks through data of patent publication US8952024B2, “Herbicidal pyrimidone derivatives” (E I du Pont de Nemours and Company, priority 2009, dated 2015).

Molecules are shown by their SMILES.

One experiment deals with rice (Oryza sativa). Briefly: Test B flooded paddy test. The class given is in vivo. Conditions: 250 g ai/ha; flooded paddy test; visual rating on 0 to 100 scale (0 no effect, 100 complete control) after 13 to 15 days. A digest of the protocol:
(§1)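 Ratings are visual, 0–100 (100 = complete control), taken versus untreated controls 13 to 15 days after treatment in the greenhouse. Compound went straight into paddy water held 3 cm above soil, applied to 2-leaf-stage plants of four species.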
On to `CCCCc1ncc(C(=O)C2=C(O)CCCC2=O)c(=O)n1-c1ccccc1` [Compound 42], for which the “Plant response rating, Flood, Rice” value came out at 20.

Still in this experiment, the particulars now being: Flood (flooded paddy test), 62 g ai/ha; scale 0 to 100, 0 is no effect, 100 is complete control; 13 to 15 days.
As to `CCCCc1ncc(C(=O)C2=C(O)CCCC2=O)c(=O)n1-c1ccccc1` [Compound 42], the “Plant response rating, Rice” value worked out at 0.

For another experiment, the system named is umbrella sedge (Cyperus difformis). Description: Test B flooded paddy test. The class given is in vivo. Conditions: 250 g ai/ha; flooded paddy test; visual rating on 0 to 100 scale (0 no effect, 100 complete control) after 13 to 15 days. The gist of the method:
as §1
As to `CCCCc1ncc(C(=O)C2=C(O)CCCC2=O)c(=O)n1-c1ccccc1` [Compound 42], the “Plant response rating, Flood, Sedge, Umbrella” value came out at 30.

The same experiment, now with this note: Flood (flooded paddy test), 62 g ai/ha; scale 0 to 100, 0 is no effect, 100 is complete control; 13 to 15 days.
For the compound `CCCCc1ncc(C(=O)C2=C(O)CCCC2=O)c(=O)n1-c1ccccc1` [Compound 42], the “Plant response rating, Sedge, Umbrella” value stood at 30.

Another experiment concerns ducksalad (Heteranthera limosa). Briefly: Test B flooded paddy test. To be noted: 250 g ai/ha; flooded paddy test; visual rating on 0 to 100 scale (0 no effect, 100 complete control) after 13 to 15 days. It counts as in vivo. A digest of the protocol: as §1
For `CCCCc1ncc(C(=O)C2=C(O)CCCC2=O)c(=O)n1-c1ccccc1` [Compound 42], the “Plant response rating, Flood, Ducksalad” value is recorded as 50.

Still in this experiment, the particulars now being: Flood (flooded paddy test), 62 g ai/ha; scale 0 to 100, 0 is no effect, 100 is complete control; 13 to 15 days.
Turning to `CCCCc1ncc(C(=O)C2=C(O)CCCC2=O)c(=O)n1-c1ccccc1` [Compound 42], the “Plant response rating, Ducksalad” value came out at 30.

The next experiment has as its system barnyardgrass (Echinochloa crus-galli). Description: Test B flooded paddy test. It counts as in vivo. Conditions: 250 g ai/ha; flooded paddy test; visual rating on 0 to 100 scale (0 no effect, 100 complete control) after 13 to 15 days. The gist of the method: as §1
As for `CCCCc1ncc(C(=O)C2=C(O)CCCC2=O)c(=O)n1-c1ccccc1` [Compound 42], the “Plant response rating, Flood, Barnyardgrass” value turned out to be 0.

Staying with this experiment, now noted: Flood (flooded paddy test), 62 g ai/ha; scale 0 to 100, 0 is no effect, 100 is complete control; 13 to 15 days.
As to `CCCCc1ncc(C(=O)C2=C(O)CCCC2=O)c(=O)n1-c1ccccc1` [Compound 42], the “Plant response rating, Barnyardgrass” value was determined as 0.

The next experiment deals with large crabgrass (Digitaria sanguinalis). Description: Test A pre-/postemergence plant response. It counts as in vivo. To be noted: Postemergence, 125 g ai/ha; visual injury, 0 to 100 scale (0 no effect, 100 complete control), approx. ten days. A digest of the protocol: (§2)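 Injury scores (0, no effect; 100, complete control) come from visual comparison with untreated controls roughly ten days post-treatment. Test chemicals in a surfactant-containing non-phytotoxic solvent were applied as a directed soil spray preemergence and to one- to two-leaf seedlings postemergence.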
With `CCCCc1ncc(C(=O)C2=C(O)CCCC2=O)c(=O)n1-c1ccccc1` [Compound 42], the “Crabgrass, Large plant response rating” value was 60.

Staying with this experiment, now noted: Postemergence, 500 g ai/ha; 0 to 100 scale, 0 = no effect, 100 = complete control; approx. ten days.
For `CCCCc1ncc(C(=O)C2=C(O)CCCC2=O)c(=O)n1-c1ccccc1` [Compound 42], the “Plant response rating, Crabgrass, Large” value came out at 80.

The experiment is the same for the next values; noted with them: Preemergence, 125 g ai/ha; 0 to 100 scale, 0 = no effect, 100 = complete control.
Consider `CCCCc1ncc(C(=O)C2=C(O)CCCC2=O)c(=O)n1-c1ccccc1` [Compound 42], for which the “Plant response rating, Crabgrass, Large” value is given as 40.

Still in this experiment, the particulars now being: Preemergence, 500 g ai/ha; visual injury, 0 to 100 scale (0 no effect, 100 complete control), approx. ten days.
Consider `CCCCc1ncc(C(=O)C2=C(O)CCCC2=O)c(=O)n1-c1ccccc1` [Compound 42], for which the “Plant response rating, Crabgrass, Large” value is given as 90.

Another experiment deals with pigweed (Amaranthus retroflexus). Description: Test A pre-/postemergence plant response. It counts as in vivo. To be noted: Postemergence, 125 g ai/ha; visual injury, 0 to 100 scale (0 no effect, 100 complete control), approx. ten days. A digest of the protocol:
as §2
Take `CCCCc1ncc(C(=O)C2=C(O)CCCC2=O)c(=O)n1-c1ccccc1` [Compound 42]: the “Pigweed plant response rating” value is listed as 100.

The experiment is the same for the next values; noted with them: Postemergence, 500 g ai/ha; 0 to 100 scale, 0 = no effect, 100 = complete control; approx. ten days.
`CCCCc1ncc(C(=O)C2=C(O)CCCC2=O)c(=O)n1-c1ccccc1` [Compound 42]: the “Plant response rating, Pigweed” value was determined as 100.

Staying with this experiment, now noted: Preemergence, 125 g ai/ha; 0 to 100 scale, 0 = no effect, 100 = complete control.
In the case of `CCCCc1ncc(C(=O)C2=C(O)CCCC2=O)c(=O)n1-c1ccccc1` [Compound 42], the “Plant response rating, Pigweed” value was determined as 90.

Still in this experiment, the particulars now being: Preemergence, 500 g ai/ha; visual injury, 0 to 100 scale (0 no effect, 100 complete control), approx. ten days.
For the compound `CCCCc1ncc(C(=O)C2=C(O)CCCC2=O)c(=O)n1-c1ccccc1` [Compound 42], the “Plant response rating, Pigweed” value was determined as 100.

The next experiment relates to corn (Zea mays). Briefly: Test A pre-/postemergence plant response. It counts as in vivo. Conditions: Postemergence, 125 g ai/ha; visual injury, 0 to 100 scale (0 no effect, 100 complete control), approx. ten days. The gist of the method:
as §2
On to `CCCCc1ncc(C(=O)C2=C(O)CCCC2=O)c(=O)n1-c1ccccc1` [Compound 42], for which the “Corn plant response rating” value was 0.

Staying with this experiment, now noted: Postemergence, 500 g ai/ha; 0 to 100 scale, 0 = no effect, 100 = complete control; approx. ten days.
Regarding `CCCCc1ncc(C(=O)C2=C(O)CCCC2=O)c(=O)n1-c1ccccc1` [Compound 42], the “Plant response rating, Corn” value came to 30.

The same experiment, now with this note: Preemergence, 125 g ai/ha; 0 to 100 scale, 0 = no effect, 100 = complete control.
As to `CCCCc1ncc(C(=O)C2=C(O)CCCC2=O)c(=O)n1-c1ccccc1` [Compound 42], the “Plant response rating, Corn” value was 0.

The same experiment, now with this note: Preemergence, 500 g ai/ha; visual injury, 0 to 100 scale (0 no effect, 100 complete control), approx. ten days.
As for `CCCCc1ncc(C(=O)C2=C(O)CCCC2=O)c(=O)n1-c1ccccc1` [Compound 42], the “Plant response rating, Corn” value turned out to be 0.

The subject of a further experiment is morningglory (Ipomoea spp.). Briefly: Test A pre-/postemergence plant response. Conditions: Postemergence, 125 g ai/ha; visual injury, 0 to 100 scale (0 no effect, 100 complete control), approx. ten days. The class given is in vivo. A digest of the protocol:
as §2
For the compound `CCCCc1ncc(C(=O)C2=C(O)CCCC2=O)c(=O)n1-c1ccccc1` [Compound 42], the “Morningglory plant response rating” value is given as 80.

The experiment is the same for the next values; noted with them: Postemergence, 500 g ai/ha; 0 to 100 scale, 0 = no effect, 100 = complete control; approx. ten days.
`CCCCc1ncc(C(=O)C2=C(O)CCCC2=O)c(=O)n1-c1ccccc1` [Compound 42]: the “Plant response rating, Morningglory” value came out at 80.
